What was measured:
[1] = test system: TALL-1; assay: Anticancer activity against human TALL-1 cells assessed as cell number by coulter channelyzer; type: functional, cell-based
[2] = Metabolic stability in human liver microsomes assessed as fraction of 0.5 uM parent compound remaining after 10 mins; type: ADME; conditions: read-out: Stability
[3] = Metabolic stability in mouse liver microsomes assessed as fraction of 0.5 uM parent compound remaining after 10 mins; type: ADME; conditions: read-out: Stability
[4] = test system: TALL-1; assay: In vivo antitumor activity against human TALL-1 cells xenograft model assessed as tumor growth inhibition at 6 mg/kg, po qd for 10 days on - 2 days off - 5 days on; type: functional; conditions: read-out: TGI
[5] = test system: TALL-1; assay: In vivo antitumor activity against human TALL-1 cells xenograft model assessed as tumor growth inhibition at 24 mg/kg, po qd for 10 days on - 2 days off - 5 days on; type: functional; conditions: read-out: TGI
[6] = test system: MDA-MB-157; assay: In vivo antitumor activity against human MDA-MB-157 cells xenograft model assessed as tumor growth inhibition at 7.5 mg/kg, po qd for 10 days on - 2 days off - 5 days on; type: functional; conditions: read-out: TGI
[7] = test system: MDA-MB-157; assay: In vivo antitumor activity against human MDA-MB-157 cells xenograft model assessed as tumor growth inhibition at 15 mg/kg, po qd for 10 days on - 2 days off - 5 days on; type: functional; conditions: read-out: TGI
[8] = test system: MDA-MB-157; assay: In vivo antitumor activity against human MDA-MB-157 cells xenograft model assessed as tumor growth inhibition at 30 mg/kg, po qd for 10 days on - 2 days off - 5 days on; type: functional; conditions: read-out: TGI
[9] = test system: TALL-1; assay: In vivo antitumor activity against human TALL-1 cells xenograft model assessed as tumor growth inhibition treated po qd for 10 days on - 2 days off - 5 days on; type: functional, organism-based

SMILES | IC50 [1] | remaining at 10 min, 0.5 µM [2] | remaining at 10 min, 0.5 µM [3] | further results
CN1C(=O)[C@@H](NC(=O)[C@H](CCC(F)(F)F)[C@@H](C(N)=O)c2cccc(C(F)(F)F)c2)N=C(c2ccccc2)c2ccccc21 | 13 nM | 92% | 59% | –
CN1C(=O)[C@@H](NC(=O)[C@H](CCC(F)(F)F)[C@@H](C(N)=O)c2ccc(F)cc2)N=C(c2ccccc2)c2ccccc21 | 5 nM | 95% | 65% | –
Cc1cc([C@H](C(N)=O)[C@@H](CCC(F)(F)F)C(=O)N[C@H]2N=C(c3ccccc3)c3ccccc3N(C)C2=O)no1 | – | 94% | 10% | –
NC(=O)[C@@H](c1cnoc1)[C@@H](CCC(F)(F)F)C(=O)N[C@H]1N=C(c2ccccc2)c2ccccc2NC1=O | – | 96% | 100% | –
Cc1nocc1[C@H](C(N)=O)[C@@H](CCC(F)(F)F)C(=O)N[C@H]1N=C(c2ccccc2)c2ccccc2N(C)C1=O | – | 78% | 23% | –
CCC(CC)[C@H](C(N)=O)[C@@H](CC(C)C)C(=O)N[C@H]1N=C(c2ccccc2)c2ccccc2N(C)C1=O | 3 nM | 2% | 2% | –
Cc1cccc([C@H](C(N)=O)[C@@H](CCC(F)(F)F)C(=O)N[C@H]2N=C(c3ccccc3)c3ccccc3N(C)C2=O)c1 | 15 nM | 23% | 7% | –
CN1C(=O)[C@@H](NC(=O)[C@H](CCC(F)(F)F)[C@@H](C(N)=O)c2cc(F)cc(F)c2)N=C(c2ccccc2)c2ccccc21 | 4 nM | 94% | 21% | –
CN1C(=O)[C@@H](NC(=O)[C@H](CCC(F)(F)F)[C@@H](C(N)=O)c2ccccc2)N=C(c2ccccc2)c2ccccc21 | 4 nM | 95% | 74% | inhibition in vivo at 6 mg/kg [4]: 71%; inhibition in vivo at 24 mg/kg [5]: 102%; inhibition in vivo at 7.5 mg/kg [6]: 63%; inhibition in vivo at 15 mg/kg [7]: 76%; inhibition in vivo at 30 mg/kg [8]: 99%; inhibition [9]: Dose-dependent effect
CN1C(=O)[C@@H](NC(=O)[C@H](CCC(F)(F)F)[C@@H](C(N)=O)c2cccc(OC(F)(F)F)c2)N=C(c2ccccc2)c2ccccc21 | 26 nM | 100% | 82% | –
Cc1nc([C@H](C(N)=O)[C@@H](CCC(F)(F)F)C(=O)N[C@H]2N=C(c3ccccc3)c3ccccc3N(C)C2=O)no1 | – | 100% | 24% | –
NC(=O)[C@@H](c1cocn1)[C@@H](CCC(F)(F)F)C(=O)N[C@H]1N=C(c2ccccc2)c2ccccc2NC1=O | – | 86% | 99% | –
NC(=O)[C@@H](c1ncon1)[C@@H](CCC(F)(F)F)C(=O)N[C@H]1N=C(c2ccccc2)c2ccccc2NC1=O | – | 84% | 83% | –
COc1ccc([C@H](C(N)=O)[C@@H](CCC(F)(F)F)C(=O)N[C@H]2N=C(c3ccccc3)c3ccccc3N(C)C2=O)cc1 | 4 nM | 62% | 5% | –
CN1C(=O)[C@@H](NC(=O)[C@H](CCC(F)(F)F)[C@@H](C(N)=O)c2ccc(F)cc2F)N=C(c2ccccc2)c2ccccc21 | 4 nM | 100% | 31% | –
CN1C(=O)[C@@H](NC(=O)[C@H](CCC(F)(F)F)[C@@H](C(N)=O)c2ccc(F)c(F)c2)N=C(c2ccccc2)c2ccccc21 | 4 nM | 94% | 29% | –
CCC[C@H](C(N)=O)[C@@H](CC(F)(F)F)C(=O)N[C@H]1N=C(c2ccccc2)c2ccccc2N(C)C1=O | 158 nM | 45% | 51% | –
CN1C(=O)[C@@H](NC(=O)[C@H](CCC(F)(F)F)[C@@H](C(N)=O)c2cccc(S(C)(=O)=O)c2)N=C(c2ccccc2)c2ccccc21 | – | 93% | 62% | –
CCC(CC)[C@H](C(N)=O)[C@@H](CCC(F)(F)F)C(=O)N[C@H]1N=C(c2ccccc2)c2ccccc2N(C)C1=O | – | 5% | 7% | –
CCC(CC)[C@H](C(N)=O)[C@@H](CC(C)(C)C)C(=O)N[C@H]1N=C(c2ccccc2)c2ccccc2N(C)C1=O | – | 1% | 6% | –
